In the oligonucleotide strings, read from the 5' end, every base follows the letter of its sugar. An asterisk marks phosphorothioate; unmarked linkages are phosphodiester. Other units and linkages are bracketed, terminal groups are in braces. A string of capitals states the bases alone. m = 2'-O-methyl
Assays:
TLR8 [1] = target: T1, TLR8 (Homo sapiens, UniProt Q9NR97); experiment: HEK-TLR8 NF-κB-luciferase reporter, R848 or Motolimod stimulation (potentiation or inhibition); format: cell-based; set-up: expressed in transfected cells; host or cells: 293XLhTLR8 (HEK293); conditions: for TLR8 HEK 5 uM: 3mer 2'OMe ASO at 5 uM, value relative to Ligand only = 1.000, NT = 0.000; for effect of 3-mer 2′OMe PS oligos on TLR8 sensing in HEK-TLR8 (in words): 5 μM naked 3-mer, Motolimod; for TLR8 100 nM (averaged NF-κB-Luciferase level relative to R848 condition, fold increase): ASO 100 nM; for TLR8 100 nM (averaged NF-κB-Luciferase level relative to R848 condition, fold increase) / TLR8 500 nM (averaged NF-κB-Luciferase level relative to R848 condition, fold increase): relative to R848 only; for TLR8 500 nM (averaged NF-κB-Luciferase level relative to R848 condition, fold increase): ASO 500 nM
T1 sequence (Q9NR97 27-1041): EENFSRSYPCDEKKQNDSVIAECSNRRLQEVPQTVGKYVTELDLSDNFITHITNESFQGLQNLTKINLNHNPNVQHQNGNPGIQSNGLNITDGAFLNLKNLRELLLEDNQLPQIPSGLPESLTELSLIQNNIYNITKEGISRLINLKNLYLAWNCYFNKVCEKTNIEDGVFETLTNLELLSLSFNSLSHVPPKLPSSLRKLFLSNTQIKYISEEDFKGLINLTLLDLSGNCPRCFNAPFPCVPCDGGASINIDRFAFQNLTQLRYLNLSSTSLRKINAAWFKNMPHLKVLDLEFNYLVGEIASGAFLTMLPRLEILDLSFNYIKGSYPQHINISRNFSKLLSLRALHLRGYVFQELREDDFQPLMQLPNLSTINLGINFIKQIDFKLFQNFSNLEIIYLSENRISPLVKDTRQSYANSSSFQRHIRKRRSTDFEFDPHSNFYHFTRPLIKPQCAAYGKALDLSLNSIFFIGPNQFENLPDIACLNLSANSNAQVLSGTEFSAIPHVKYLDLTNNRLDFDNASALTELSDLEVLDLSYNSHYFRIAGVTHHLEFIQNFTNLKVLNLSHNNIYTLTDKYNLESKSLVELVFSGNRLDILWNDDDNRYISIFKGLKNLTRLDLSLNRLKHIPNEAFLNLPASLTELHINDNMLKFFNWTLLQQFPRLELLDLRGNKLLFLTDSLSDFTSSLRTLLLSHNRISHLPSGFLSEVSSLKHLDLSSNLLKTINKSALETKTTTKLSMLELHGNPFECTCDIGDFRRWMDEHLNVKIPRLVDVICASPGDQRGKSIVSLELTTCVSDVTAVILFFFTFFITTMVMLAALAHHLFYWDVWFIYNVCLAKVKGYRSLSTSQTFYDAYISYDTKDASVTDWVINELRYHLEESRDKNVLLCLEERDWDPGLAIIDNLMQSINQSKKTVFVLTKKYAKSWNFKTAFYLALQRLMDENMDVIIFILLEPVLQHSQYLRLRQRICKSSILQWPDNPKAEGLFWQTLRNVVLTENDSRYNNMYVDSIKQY
Protocol: (§1) In such examples, potentiation of TLR8 activity can be identified by observation of an overall increased TLR8 response of the cell population, or a higher proportion of cells having TLR8-positive activity as compared to a negative control condition in which cells are treated with TLR8 agonist in the absence of the oligonucleotide (or in the presence of an appropriate control non-potentiating agent). In one example, 293XLhTLR8 (referred to as HEK-TLR8) cells are transfected with pNF-κB-Luc4 reporter, incubated with an oligonucleotide, and then stimulated with R848. TLR8 activity can be determined by a luciferase assay, which measures activated NF-κB by luminescence. TLR8 activity can also be analysed by measuring cytokine levels, for example by ELISA.
as §1, with “inhibition” for “potentiation”, “decreased” for “increased”, “lower” for “higher”, “positive” for “negative”, “inhibitory” for “non-potentiating”
For cGAS stimulations, cells were treated for indicated duration with ASOs, prior to transfection with ISD70 (human cells) or ISD45 (mouse cells) (the ASOs were not washed off prior to ISD transfection unless otherwise indicated). The cGAS ligands ISD45 (Stetson and Medzhitov, 2006) and ISD70 (also known as VACV-70 (Unterholzner et al., 2010)) (Table 1) were resuspended as follows: 5 1d of sense and 5 μl of antisense strands at 10 μg/μl were added to 90 μl PBS under sterile conditions, heated at 75° C. for 30 min, prior to letting cool down at room temperature and aliquoting (stock at 1 μg/1 l). The ISDs were transfected at a concentration of […] at a ratio of 1 μg:1 μl with Lipofectamine 2000 in Opti-MEM (Thermo Fisher Scientific). HEK-TLR3, HEK-TLR7 and […] were treated with indicated concentration of ASOs for 20-50 min, prior to stimulation with poly(I:C) (Invivogen), R848 (Invivogen), Motolimod (MedChemExpress) and the Class B CpG oligonucleotides ODN 2006 (synthesised by IDT and resuspended in RNase-free TE buffer [Table 1]), respectively. The TLR2/1 agonist PAM3CSK4 (Invivogen), the TLR4 agonist lipopolysaccharide (Invivogen), the Class B CpG oligonucleotides ODN 1826 (synthesised by IDT and resuspended in RNase-free TE buffer), the mouse Sting agonist DMXAA (Cayman) and the human STING agonist (compound #3 from (Raanjulu et al., 2018), referred to as GSK herein—kind gift from Cancer Therapeutics CRC, Australia) were used at indicated concentrations. Aspirin (Sigma—A2093) was resuspended in pure medium to 10 mM, filter sterilised and added to the cells at 2 mM final. All ASOs were synthesised by Integrated DNA Technologies (IDT), and resuspended in RNase-free TE buffer, pH 8.0 (Thermo Fisher Scientific). Cell viability was assessed by adding 1× fresh resazurin solution to the wells (10λ solution made up with 7 mg resazurin [Sigma—R7017] dissolved in 3.5 ml PBS, sterile filtered at […]) for 4 h, prior to reading at with a Fluostar OPTIMA (BMG LABTECH) plate-reader (fluorescence: Excitation 535 nm, Emission 590); wells with medium only and 1× resazurin were used as blanks.

TLR8 [2] = target: T1, TLR8; experiment: R848-driven IP-10 production in THP-1 cells (TLR8); format: cell-based; set-up: expressed in transfected cells; conditions: 3mer 2'OMe ASO at 1 uM; raw values, Ligand only = 355.752, NT = 134.831;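 also: IP-10 by ELISA in supernatant after 7 h R848 stimulation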

Substance	TLR8 HEK 5 uM (TLR8 [1])	TLR8 1 uM (TLR8 [2])	effect of 3-mer 2′OMe PS oligos on TLR8 sensing in HEK-TLR8 (in words) (TLR8 [1])	TLR8 100 nM (averaged NF-κB-Luciferase level relative to R848 condition, fold increase) (TLR8 [1])	TLR8 500 nM (averaged NF-κB-Luciferase level relative to R848 condition, fold increase) (TLR8 [1])
CAU (mC*mA*mU)	0.752	388.191			
mGmUmG (mG*mU*mG) [GUG, 3-mer 2′OMe PS oligo]	0.882	158.982	robustly inhibitory		
dA*dA*dG (DNA AAG; listed as DNA, chemistry not fully specified)	0.858	179.302			
dA*dG*dA (DNA AGA; listed as DNA, chemistry not fully specified)	1.520	214.450			
mAmUmC (mA*mU*mC) [AUC, 3-mer 2′OMe PS oligo]	0.674	181.793			
dC*dC*dA (CCA; listed as DNA, chemistry not fully specified)	0.946	181.239			
CUA (mC*mU*mA)	0.642	243.564			
AUA (antisense mA*mU*mA)	0.812	157.293			
dA*dA*dA (DNA AAA; listed as DNA, chemistry not fully specified)	0.859	225.029			
UGU (mU*mG*mU)	1.120	331.923			
GCU (mG*mC*mU)	0.810	193.279			
AUG (mA*mU*mG)	0.828	151.847			
UAU (mU*mA*mU)	0.887	213.758			
AGU (antisense mA*mG*mU)	1.329	270.256			
mUmGmG (mU*mG*mG) [UGG, 3-mer 2′OMe PS oligo]	1.860	527.575	potentiated the sensing of R848		
dA*dA*dC (DNA AAC; listed as DNA, chemistry not fully specified)	0.696	218.889			
AUU (mA*mU*mU)	0.762	274.683			
mCmUmU (antisense mC*mU*mU) [660-3]	0.712	167.148			
UGC (mU*mG*mC)	1.032	278.054			
GGCTGGAATCCGAGTT (antisense; LNA-modified, pattern not given here) [EGFR-4705 LNA KL]				0.562	0.577
GATAGCACCTTCAGCA (antisense; LNA-modified, pattern not given here) [CTNN2B-1294 LNA KL]				0.821	2.863

Reference: patent US20240384268A1, “Oligonucleotides” (Hudson Institute of Medical Research, priority 2021, published 2024)
